Several values for one entry are separate records, joined by “and”; a condition that tells them apart may be missing. Identical values can stand only once.
Columns and labels:
[1] = biological target: T1, 5HT7 (h) (Homo sapiens, UniProt P34969); test: 5HT subtype antagonism assay (Eurofins Cerep): 5HT7; type: cell-based
T1 construct: host or cells: CHO cells
Description: The derivatives were evaluated at a concentration of 1 μM for their antagonist activity on the 5HT2A receptor (Tables 1–3)[33],[34]. Human 5HT2A stably transfected HEK293 cells (a type of cell derived from kidney embryos)[20] were seeded in a 96-well plate (Costar; 3603) at a density of 9 × 10^4 in 100 μL of minimum essential medium (Welgene; LM007-86) containing 10% dialyzed fetal bovine serum (Gibco; 30067–334) and 1% penicillin/streptomycin (Gibco; 15140-122) and kept in a 37 °C incubator for 24 h. The cells were stained with 100 μL of cytosolic calcium dye using the FLIPR calcium 6 assay solution (Molecular devices, #R8190) supplemented with 2.5 mM probenecid (Sigma; P8761) and incubated for 1 h at 37 °C. After 1 h, the designated amount of the compound was treated in each well and incubated for another 1 h at 37 °C. Then, the cells were loaded in a Flexstation 3 microplate reader (Molecular Devices; FlexStaion) and 50 μL of 5 μM 5HT (serotonin hydrochloride, Sigma; H9523) was injected from a source plate (Nunc 96-well polystyrene conical bottom MicroWell Plate, Thermo; 249662) and the fluorescence intensity (Ex/Em-485nm/ 525 nm) was measured. […]
Antagonism assay Source Stimulus Incubation Measured Detection Method […]

[2] = Hepatocyte stability test, rat; type: in vitro ADME; conditions: male, Sprague Dawley, cryopreserved hepatocytes, pH 7.4, read-out: Hepatocyte stability (% remaining after 3 h)
Description: Hepatocyte incubations for the test compound (10 μM final concentration, n = 2 per each time point) were carried out in mouse, rat, dog, monkey and human cryopreserved hepatocytes, resuspended at a density of 0.5 million cells/ml of modified Krebs-Henseleit buffer (KHB). The information regarding the hepatocytes used in the experiment is as follows: liverPool® 10-donor mixed gender human (BioIVT, Cat.No. X008001, lot EAV), male cynomolgus monkey (BioIVT, Cat.No. M00305, lot COJ), male Beagle dog (BioIVT, Cat.No. M00205, lot USY), male Sprague Dawley rat (BioIVT, Cat.No. M00005, lot TQE) and male CD1 mouse (BioIVT, Cat.No.005052, lot LFF). In addition, the compound was also incubated with blank KHB. The final concentration of solvent (DMSO) was 0.1% of the final volume. The incubations were performed for 3 hours at 37°C and pH 7.4. Reactions were terminated at 0 and 180 minutes by the addition of 3 volumes of stop solution (acetonitrile/methanol (2:1, v/v) containing internal standard–diclofenac at 100 ng/ml). Samples (compound spiked buffer and compound spiked hepatocytes, as well as blank samples, i.e. hepatocytes with the same DMSO%) were then centrifuged and aliquots were transferred to 96-deep micronic tubes and frozen at -80 °C until LC-MS/MS analysis. […]

[3] = tested on: α-SMA; test: CDAHFD mice: α-SMA immunohistochemical staining; type: in vivo, mouse; set-up: α-SMA immunohistochemical staining (a-SMA area), individual mouse / α-SMA immunohistochemical staining (a-SMA area), Average: unit not given here; conditions: for α-SMA immunohistochemical staining (a-SMA area), Average / α-SMA immunohistochemical staining (a-SMA area), individual mouse: CDAHFD mice; for α-SMA immunohistochemical staining (a-SMA area), Average: group average n=5, CDAHFD+Vehicle 6.348, Vehicle 0.808; for α-SMA immunohistochemical staining (a-SMA area), individual mouse: individual animals No. 1-5 (Fig.4f)
Excerpt: C57BL/6 J male mice were purchased from the Japan SLC. Inc (Hamamatsu, Japan). Mice (5 weeks old) were fed Teklad Certitied Irradiated Global 18% protein rodent diet purchased from Dooyeol Biotech Co. Ltd (Seoul, South Korea) during the acclimation period. The liver fibrosis/inflammation-induced groups were CDAHFD-fed (A06071302, Research diet). […] All animal experiments complied with the relevant ethical regulations.
Mouse liver tissues were fixed in 4% formalin solution (Sigma–Aldrich, St. Louis, MO, USA) and embedded in paraffin. 4-μm-thick liver sections were deparaffinized in xylene, and rehydrated through descending grades of ethanol. To evaluate liver fibrosis, sections were stained with Sirius red solution and subjected to immunohistochemical staining. Tissue sections, after deparaffinization, underwent a 16-hour incubation in a solution containing 0.1% Direct Red 80 (365548, Sigma-Aldrich) dissolved in Picric acid (P-201, Spectrum Chemical, CA, USA) for Sirius red staining. The sections were briefly immersed in a 0.01 N HCl solution (1129, Ducksan, Republic of Korea) for 2 min. and then rinsed with distilled water for destaining. Subsequently, the sections underwent dehydration through […] grades of ethanol. Immunohistochemical staining was performed using the Polyview Plus HRP-DAB (anti-Rabbit) Kit (ENZ-KIT159-0150, ENZO Life Science, NY, USA) following the manufacturers’ instructions. Deparaffinized sections were boiled in IHC-TekTM Epitope Retrieval solution (IW-1100, IHCWORLD, MD, USA) for 45 min., cooled for 1 h, incubated in a 3% H2O2 solution (69355-0350, JUNSEI, Japan) for 15 min., washed, and then incubated overnight with primary antibodies (α-SMA, ab5694, Abcam, 1:500 dilution; TNF-α, ab6671, Abcam, 1:100 dilution and IL-1β, ab9722, Abcam, 1:100 dilution). Subsequently, the sections were treated with Polyview Plus HRP for 2 h and developed with DAB chromogen/substrate. Stained […] sections were confirmed by light microscopy (Olympus BX53 upright microscope, Tokyo, Japan). The degree of hepatic fibrosis and immunohistochemical staining was quantified by morphometric analysis of stained liver sections using NIH ImageJ software.

[4] = biological target: CYP2C9 (Homo sapiens, UniProt P11712); test: in vitro
CYP2C9, sequence (P11712 whole entry): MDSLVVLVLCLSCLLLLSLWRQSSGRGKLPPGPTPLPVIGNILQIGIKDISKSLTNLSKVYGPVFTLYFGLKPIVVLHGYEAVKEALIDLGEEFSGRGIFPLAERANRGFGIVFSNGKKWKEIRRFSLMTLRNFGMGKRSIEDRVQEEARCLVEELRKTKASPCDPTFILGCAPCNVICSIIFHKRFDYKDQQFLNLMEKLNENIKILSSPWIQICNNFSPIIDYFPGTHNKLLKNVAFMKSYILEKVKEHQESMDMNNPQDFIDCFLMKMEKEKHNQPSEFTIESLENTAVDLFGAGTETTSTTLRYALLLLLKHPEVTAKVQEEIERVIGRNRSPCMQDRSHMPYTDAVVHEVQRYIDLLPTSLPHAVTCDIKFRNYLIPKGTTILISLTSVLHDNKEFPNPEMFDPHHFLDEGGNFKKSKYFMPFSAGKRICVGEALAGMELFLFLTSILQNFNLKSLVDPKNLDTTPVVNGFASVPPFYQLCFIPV

T1 sequence (P34969 whole entry): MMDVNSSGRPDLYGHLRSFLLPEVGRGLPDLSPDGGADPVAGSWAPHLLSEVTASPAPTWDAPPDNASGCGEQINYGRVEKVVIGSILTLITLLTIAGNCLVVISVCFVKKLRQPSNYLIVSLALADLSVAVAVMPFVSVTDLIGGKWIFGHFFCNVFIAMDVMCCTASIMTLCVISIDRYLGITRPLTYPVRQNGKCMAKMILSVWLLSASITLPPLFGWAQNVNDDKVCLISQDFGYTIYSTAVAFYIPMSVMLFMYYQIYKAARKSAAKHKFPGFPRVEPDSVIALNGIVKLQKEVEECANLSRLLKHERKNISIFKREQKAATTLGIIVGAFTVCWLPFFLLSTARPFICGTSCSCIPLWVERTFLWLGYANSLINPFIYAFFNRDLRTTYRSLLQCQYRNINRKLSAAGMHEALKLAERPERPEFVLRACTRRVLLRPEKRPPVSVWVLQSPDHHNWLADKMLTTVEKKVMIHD

Which “Selectivity 7: % inhibition” value ([1]; concentration not given) does the source give for `Cc1nc2n(c(=O)c1CCN1CCC(=C3c4ccc(Cl)cc4CCc4cccnc43)CC1)CCCC2O` (stereo not drawn) [Compound 11c] here?
The value was 91%.

What about the IC50 ([1]; read-out: Selectivity 7: IC50) of the same molecule?
The IC50 was 0.1 µM.

And the remaining at 3 h, 10 μM [2]?
The remaining at 3 h, 10 μM was 68.9%.

What about the “α-SMA immunohistochemical staining (a-SMA area), Average” value ([3]; 11c 5 mpk) of the same molecule?
Its value is 2.563.

What about the “α-SMA immunohistochemical staining (a-SMA area), individual mouse” value ([3]; 11c 5 mpk) of the same molecule?
The value was 2.929 and 2.447 and 3.505 and 2.773 and 1.159.

And the “α-SMA immunohistochemical staining (a-SMA area), Average” value ([3]; 11c 10mpk)?
The value was 3.310.

And the “α-SMA immunohistochemical staining (a-SMA area), individual mouse” value ([3]; 11c 10mpk)?
Its value is 3.665 and 3.079 and 3.824 and 3.446 and 2.538.

What about the “α-SMA expression (immunohistochemical staining)” value ([3]; CDAHFD-fed 11c vs CDAHFD-fed vehicle group) of the same molecule?
Its value is “significant decrease”.

And the inhibition at 10 µM [4]?
The inhibition at 10 µM was 3.17%.

Reference: PMC10799935, “Discovery of a peripheral 5HT2A antagonist as a clinical candidate for metabolic dysfunction-associated steatohepatitis” (Nature Communications, 2024)
